Reference: paper PMC12084609, “Structural insights into small-molecule agonist recognition and activation of complement receptor C3aR” (The EMBO Journal, 2025)
Positions count from the first letter of the chain named. Values joined by “and” are separate entries in the source; they are usually repeats but may differ in a detail not shown here. Equal entries are not always repeated. Where two headings read alike, the source gives them in different places.

Experiments:
Type in all cases: cell-based
C3aR WT = target: T1, C3aR WT (Homo sapiens, UniProt Q16581); assay: GloSensor-based cAMP assay, WT C3aR (HEK293T); conditions: for remaining activity at 0.0001 µM / remaining activity at 10 pM: HEK-293T; for IC50: WT C3aR
T1 construct: expressed in transfected cells; host or cells: HEK293T
T1 sequence (Q16581 1-482): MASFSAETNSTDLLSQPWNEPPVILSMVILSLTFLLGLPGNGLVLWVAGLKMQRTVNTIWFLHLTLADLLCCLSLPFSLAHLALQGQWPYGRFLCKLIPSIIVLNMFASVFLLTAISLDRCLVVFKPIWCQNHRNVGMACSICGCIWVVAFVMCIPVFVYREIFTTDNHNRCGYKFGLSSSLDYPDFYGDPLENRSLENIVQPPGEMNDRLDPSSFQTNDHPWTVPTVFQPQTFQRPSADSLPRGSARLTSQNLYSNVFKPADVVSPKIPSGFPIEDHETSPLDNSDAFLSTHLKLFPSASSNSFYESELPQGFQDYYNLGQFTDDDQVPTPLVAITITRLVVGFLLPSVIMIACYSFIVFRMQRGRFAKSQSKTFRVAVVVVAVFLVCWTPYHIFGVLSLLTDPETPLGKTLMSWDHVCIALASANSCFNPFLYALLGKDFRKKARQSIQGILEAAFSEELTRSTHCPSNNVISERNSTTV
Protocol: (§1) HEK293T cells were seeded on 6-well plates (NEST) and transfected with pGlosensor™-22F plasmids (Promega) and pcDNA3.1 plasmids encoding C3aR or its mutants an with N-terminal FLAG tag. After 48 h, cells were detached with Accutase solution (Sigma-Aldrich) and washed with PBS, and resuspended in assay buffer (CO2-independent medium with 0.5 mg mL^−1D-luciferin). 100,000–200,000 cells were seeded on 96-well white bottom plates (SPL) and incubated at 37 °C for 45 min followed by 45 min incubation at room temperature. After 90 min of incubation, basal luminescence signals were recorded. In total, 25 μl of test ligand with various concentrations and 1 μM Forskolin (Sigma-Aldrich) were treated to the cells and luminescence signals were measured by Tristar 2 LB 942 multimode reader (Berthold). […] Relative luminescence unit (%) was calculated with the signal of wells treated with vehicle as 0% and the signal of wells treated with 1 μM Forskolin as 100% (DiRaddo et al, [2014]). Nonlinear regression was performed using a three-parameter logistic equation.

C3aR Y174^ECL2A = target: T2, C3aR Y174^ECL2A (Homo sapiens, UniProt Q16581, Y174A); assay: GloSensor-based cAMP assay, C3aR mutant Y174A
T2 construct: expressed in transfected cells; host or cells: HEK293T
T2 sequence (Q16581 1-482 Y174A): T1 sequence (Q16581 1-482) with Y174A
Protocol: as §1

[1] = target: T3, C3aR I102^3.32A/I421^7.39A (Homo sapiens, UniProt Q16581, I102A/I421A); assay: GloSensor-based cAMP assay, C3aR double mutant I102A/I421A
T3 construct: expressed in transfected cells; host or cells: HEK293T
T3 sequence (Q16581 1-482 I102A/I421A): T1 sequence (Q16581 1-482) with I102A, I421A
Protocol: as §1

Question: How did the remaining activity at 0.0001 µM (C3aR WT; read-out: cAMP response (% Forskolin), Log[ligand (M)] -10, individual replicates) turn out when Cc1cc(C(c2ccc(Cl)cc2)c2ccc(Cl)cc2)sc1C(=O)N[C@@H](CCCNC(=N)N)C(=O)O [JR14a, reference compound] was run?
Answer: 93.3%

Question: What about the remaining activity at 10 pM (C3aR WT; read-out: cAMP response (% Forskolin), Log[ligand (M)] -11, individual replicates) of the same compound?
Answer: 95.3%

Question: What about the remaining activity at 0.0001 µM (C3aR WT; read-out: cAMP response (% Forskolin), WT, Log[JR14a (M)] -10, single replicates) of the same compound?
Answer: 93.3%

Question: And the remaining activity at 10 pM (C3aR WT; read-out: cAMP response (% Forskolin), WT, Log[JR14a (M)] -11, single replicates)?
Answer: 95.3%

Question: What about the IC50 (C3aR WT; decrease in cAMP levels, read-out: IC50) of the same compound?
Answer: 4 nM

Question: And the IC50 (C3aR WT; individual replicates, read-out: pIC50 (Replicate) (converted))?
Answer: 6.31 nM and 3.98 nM and 5.01 nM

Question: And the “mode of action at C3aR” value (C3aR WT; from BRET and cAMP accumulation assays)?
Answer: agonist

Question: What about the IC50 (C3aR WT; pIC50 (Replicate), individual replicates) of the same compound?
Answer: 2.63 nM and 3.09 nM and 7.08 nM (2×) and 5.75 nM (2×) and 11.5 nM and 8.13 nM and 2.45 nM (2×) and 1.78 nM

Question: And the IC50 (C3aR WT; pIC50 Value, Figure EV1B numerical data, curve fit)?
Answer: 3.89 nM

Question: And the IC50 (C3aR WT; pIC50 ± SEM (Mean), 1 μM Forskolin, mean of independent experiments)?
Answer: 4.57 nM

Question: And the “Span Value” (C3aR WT; span of cAMP response (% Forskolin) curve, Figure EV1B numerical data)?
Answer: 84.43

Question: What about the “Mean Diff. of pIC50, WT vs. Y174A” value (C3aR Y174^ECL2A; Dunnett's multiple comparisons test, WT minus mutant) of the same compound?
Answer: -0.215

Question: What about the IC50 (C3aR Y174^ECL2A; IC50, Y174^ECL2A, dose-response plot) of the same compound?
Answer: 1.61 nM

Question: What about the remaining activity at 1 µM (C3aR Y174^ECL2A; Y174A, Log[JR14a (M)] -6, single replicates, read-out: cAMP response (% Forskolin)) of the same compound?
Answer: 10.9%

Question: And the remaining activity at 0.1 µM (C3aR Y174^ECL2A; Y174A, Log[JR14a (M)] -7, single replicates, read-out: cAMP response (% Forskolin))?
Answer: 11.8%

Question: And the remaining activity at 0.01 µM (C3aR Y174^ECL2A; Y174A, Log[JR14a (M)] -8, single replicates, read-out: cAMP response (% Forskolin))?
Answer: 40.7%

Question: And the remaining activity at 0.0001 µM (C3aR Y174^ECL2A; Y174A, Log[JR14a (M)] -10, single replicates, read-out: cAMP response (% Forskolin))?
Answer: 95.8%

Question: And the remaining activity at 10 pM (C3aR Y174^ECL2A; Y174A, Log[JR14a (M)] -11, single replicates, read-out: cAMP response (% Forskolin))?
Answer: 106%

Question: And the “ΔpIC50 ± SE of Diff.” value (C3aR Y174^ECL2A; Y174^ECL2A relative to WT C3aR)?
Answer: 0.22 ± 0.09

Question: And the “decrease in IC50 values vs WT” value (C3aR Y174^ECL2A; Y174^ECL2 to Ala, relatively mild effect on downstream signaling)?
Answer: < 10 fold

Question: And the IC50 (C3aR Y174^ECL2A; pIC50 (Replicate), Y174^ECL2A, individual replicates)?
Answer: 3.63 nM and 1.55 nM and 0.871 nM

Question: What about the IC50 (C3aR Y174^ECL2A; pIC50 ± SEM (Mean), Y174^ECL2A, mean of independent experiments) of the same compound?
Answer: 1.7 nM

Question: What about the “ΔpIC50 ± SE of Diff.” value ([1]; I102^3.32A/I421^7.39A relative to WT C3aR) of the same compound?
Answer: -2.34 ± 0.08

Question: And the IC50 ([1]; IC50, I102^3.32A/I421^7.39A, dose-response plot)?
Answer: 1590 nM

Question: And the IC50 ([1]; pIC50 (Replicate), I102^3.32A/I421^7.39A, individual replicates)?
Answer: 2450 nM and 1150 nM and 1740 nM

Question: And the IC50 ([1]; pIC50 ± SEM (Mean), I102^3.32A/I421^7.39A, mean of independent experiments)?
Answer: 1700 nM
